This is an account of results in US9249098B2 (priority 2012, dated 2016).

A short description of data set [1]: in vivo. To be noted: male, Sprague-Dawley, plasma, rat. The procedure: Pharmacokinetics (PK) measurement. […] A total of 6 male experimental SD rats, approximately 8 weeks of age (180-250 g body weight) were used. For intravenous bolus injection (IV), the animals were placed in a polycarbonate restraint device and dosed via the tail vein. For oral dose (PO), the animals were dosed via oral gavage. […] The plasma samples were extracted by protein precipitation using 4 volume of CH3CN containing fixed concentration of internal standard compound (IS). The concentrations of analyte in plasma were determined using a high performance liquid chromatography/mass spectrometry (HPLC/MS/MS) method (Shimadzu LC-10ADVP and a Leap autosampler, Thermo Hypersil C18, 50 mm×2.1 mm, Mobile phase A: 0.1% formic acid; B: MeCN, Elution rate: 500 μL/min, Column temperature: 25° C., Injection volume: 10 μL, reverse phase elution from 10% organic to 90% organic in 5 min, Applied Biosystems API3000 triple-quadrupole instrument with a Turbo Ions Spray interface). The data acquisition and data processing were done using Analyst 1.4 software.
Experimental animal used were male Sprague-Dawley rats from Shanghai Sino-British SIPPR/BK Lab Animal Ltd, approximately 8 weeks of age (180-250 g body weight).

Data set [2] is described as follows: in vivo. To be noted: male, Sprague-Dawley, plasma, rat, read-out: T½ (terminal half life) (converted).
The nature of data set [3]: Acute toxicity in mice (LD50). To be noted: both sexes, mouse, in vivo; CD-1 mice, dosed orally (PO), 7-day acute toxicity. The procedure:
Animal toxicological tests. 7-day acute toxicity evaluation was done for selected compounds of this invention on mice and rats. Male and female CD-1 mice (25-30 grams) or SD rats (150-240 grams) were used. The animals were acclimated for 1 week prior to the experiment. The test compounds were dissolved in saline and were dosed orally (PO). Five groups (3 doses plus 1 vehicle and 1 naïve) and 10 mice per group (half male and half female) were used for each compound. All animals were fasted overnight before study. After dosing, animals were placed individually in soft-bedding cages without cage covers. Animal behavioral changes were continuously monitored for 4 hours including autonomic abnormalities (salivation, lacrimation, piloerection, yawning, palpebral closures), neuromuscular abnormalities (posture, gait, fasciculation, convulsions), stereotypical behaviors (sleep, alert, hyper/hypo-activity, slow patterned, fast patterned, restricted, dyskinetic-reactive signs etc.) and lethality. Observations for general health, mortality and moribundity were conducted twice daily after 24 hours. All animals surviving the 7-day observation period were sacrificed by carbon dioxide asphyxiation. Gross necropsies were performed on all animals sacrificed including examinations of main organs and tissue (lung, liver, kidney, heart, intestine, brain).
Acute toxicity for selected compounds of this invention was measured in mice according to the procedure illustrated in the embodiments. Male and female CD-1 mice (n=2-5/gender/compound dose, 25-32 grams) were from Shanghai Sino-British SIPPR/BK Lab Animal Ltd. Table 4 lists toxicology study observations for selected compounds.

Data set [4] concerns the target T1, acetylcholinesterase (AChE) (Electrophorus electricus, UniProt O42275).
T1 construct: purchased Sigma C2888
In words: biochemical. To be noted: room temperature, pH 8, acetylthiocholine iodide substrate; read-out: IC50, inhibition of AChE enzyme activity. How it is done: Enzymatic assay. […] The purified/synthesized compounds or compound mixtures were tested. Assay kit was from Invitrogen. AChE enzyme was from Sigma or prepared from human erythrocyte. Acetylcholine and other reagents and buffers were from Sigma. The assay solution consisted of 0.1 M phosphate buffer pH 8, 0.5 mM 5,5′-dithiobis (2-nitrobenzoic acid) (DTNB, Ellman's reagent), 0.01 unit acetylcholinesterase (Sigma Cat. No. C2888), and 0.5 mM acetylthiocholine iodide (ATCI) as the substrate. Test compounds were added to the assay solution and pre-incubated with the enzyme for 5 min at room temperature before addition of the substrate. […] Duplicate sampling was made for each sample. Test compound inhibition to enzyme activity was calculated relative to the positive control without presence of test compound. Negative controls were samples without enzyme.
Experimental procedures were described in the embodiments of this invention.

Setting [5] is: IV (intravenous), read-out: F (bioavailability).
Setting [6] is: PO (oral), read-out: F (oral bioavailability).
Where [7] appears, read: SC (subcutaneous), read-out: F (bioavailability).

The structures appear in SMILES notation. Where two headings read alike, the source gives them in different places.

T1 sequence (O42275 24-633): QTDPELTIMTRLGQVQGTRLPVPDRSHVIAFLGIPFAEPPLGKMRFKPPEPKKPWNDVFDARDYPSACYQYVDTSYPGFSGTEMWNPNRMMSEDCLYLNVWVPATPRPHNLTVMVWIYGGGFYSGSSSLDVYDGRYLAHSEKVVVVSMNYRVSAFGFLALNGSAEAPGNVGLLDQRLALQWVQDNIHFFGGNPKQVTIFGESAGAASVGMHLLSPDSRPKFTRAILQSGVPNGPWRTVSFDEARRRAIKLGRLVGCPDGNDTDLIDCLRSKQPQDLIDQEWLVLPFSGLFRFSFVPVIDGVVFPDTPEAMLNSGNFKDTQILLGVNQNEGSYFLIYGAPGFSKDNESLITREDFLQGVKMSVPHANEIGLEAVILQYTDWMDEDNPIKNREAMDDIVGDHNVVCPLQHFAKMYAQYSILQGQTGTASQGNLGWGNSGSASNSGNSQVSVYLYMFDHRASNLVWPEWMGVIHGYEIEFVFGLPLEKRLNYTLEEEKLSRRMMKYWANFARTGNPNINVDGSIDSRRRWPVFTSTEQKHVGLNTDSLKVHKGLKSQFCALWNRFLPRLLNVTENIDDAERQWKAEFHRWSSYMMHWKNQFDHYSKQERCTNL

As for `COc1cc2c(cc1OC)C(=O)C(F)(CC1(F)CCN(Cc3ccccc3)CC1)C2` (stereo not drawn) [IV-8, 2-((1-benzyl-4-fluoropiperidin-4-yl)methyl)-2-fluoro-5,6-dimethoxy-2,3-dihydro-1H-inden-1-one], the bioavailability (commonly the share of a dose that reaches the circulation, judged against a reference dose that is usually intravenous) amounted to 100% in “in vivo [1]” (setting [5]), 37.2% in the data set “in vivo [1]” (setting [6]) and 70.5% in the data set “in vivo [1]” (setting [7]). Also, the half-life (usually the time in which the quantity being followed falls by half) in “in vivo [2]” (IV (intravenous)) is 8.5 h; in the data set “in vivo [2]” (PO (oral)), 12.7 h; in the data set “in vivo [2]” (SC (subcutaneous)), 6.8 h. Also, the LD50 (as a rule, the dose at which mortality reaches 50%) at 7 day in data set [3] is over 45 mg/kg. Further, the IC50 – broadly, the concentration at which inhibition is half-maximal – in data set [4] is 9.07 nM.

`COc1cc2c(cc1OC)C(=O)C(F)(CC1(F)CCN(Cc3ccc(F)cc3)CC1)C2` (stereo not drawn) [IV-11, 2-fluoro-2-((4-fluoro-1-(4-fluorobenzyl)piperidin-4-yl)methyl)-5,6-dimethoxy-2,3-dihydro-1H-inden-1-one]: the bioavailability in “in vivo [1]” (setting [5]) came out at 100%; in “in vivo [1]” (setting [6]), 28.2%; in “in vivo [1]” (setting [7]), 100%. Besides, the half-life in the data set “in vivo [2]” (IV (intravenous)) is 3.1 h; in “in vivo [2]” (PO (oral)), 11.8 h; in the data set “in vivo [2]” (SC (subcutaneous)) it was 7.9 h. For the same molecule, in data set [3], the LD50 at 7 day is over 50 mg/kg. Besides, the IC50 in data set [4] is 28.2 nM.

Take `COc1cc2c(cc1OC)C(=O)C(CC1(F)CCN(Cc3ccccc3)CC1)C2` (stereo not drawn) [IV-4, 2-((1-benzyl-4-fluoropiperidin-4-yl)methyl)-5,6-dimethoxy-2,3-dihydro-1H-inden-1-one]: in data set [3], the LD50 at 7 day was determined as 30 mg/kg. The IC50 in data set [4] amounted to 1.04 nM.
